For twelve compounds, T/C results are on record in PubChem BioAssay AID328 (DTP/NCI, 2004).

Values joined by “and” are separate entries in the source; they are usually repeats but may differ in a detail not shown here. Equal values may be shown once. Inconclusive results and toxic doses are left out. Positions of bridges follow the written chain, without caps; N, C: chain ends. Non-standard residues stand in square brackets, D forms with d. Residues, ends and D or L forms follow the SMILES beside them. Chains are numbered I, II in the order given. *: point of attachment. Quinoxaline2carbonyl = O=C(c1cnc2ccccc2n1)*; NMeV = CN[CH](C(=O)O)C(C)C; NMeC = CN[CH](CS)C(=O)O

The experiment has as its system BDF1 mice, P388 leukemia ip, median survival T/C. The experiment can be described thus: NCI In Vivo Anticancer Drug Screen. Data for tumor model P388 Leukemia (intraperitoneal) in B6D2F1 (BDF1) mice. Particulars: endpoint: median survival time, higher = longer survival. The protocol:
The antitumor activity of compounds was measured in mice bearing transplantable tumors. Survival or tumor size were measured and the results are expressed as the measurement made in the treated group (T) divided by the measurement made in the vehicle treated control group (C). The tumor model used in this assay is P388 Leukemia (intraperitoneal) in B6D2F1 (BDF1) mice

[1] abbreviates: dose: 6.0 mg/kg/injection, schedule: Q01DX009 (ip), vehicle: Klucel (hydroxypropylcellulose) (HPC).
[2] abbreviates: dose: 25.0 mg/kg/injection, schedule: Q01DX009 (ip), vehicle: saline with Tween-80.
The mark [3] stands for this setting: dose: 50.0 mg/kg/injection, schedule: Q01DX009 (ip), vehicle: saline with Tween-80.

For `C[C@]12CC[C@H](OC(=O)Cc3ccc(N(CCCl)CCCl)cc3)CC1=CC[C@@H]1[C@@H]2CC[C@]2(C)C(=O)CC[C@@H]12`, the T/C is, setting by setting: (dose: 115.0 mg/kg/injection, schedule: Q04DX003 (ip), vehicle: saline with Tween-80) 113 % of control; (dose: 200.0 mg/kg/injection, schedule: Q01DX009 (ip), vehicle: saline with Tween-80) 215 % of control; (dose: 400.0 mg/kg/injection, schedule: Q04DX003 (ip), vehicle: alcohol) 159 % of control; (dose: 600.0 mg/kg/injection, schedule: Q04DX003 (ip), vehicle: alcohol) 272 % of control.

As to `CCCC(C(CC)CO)C(CC)C(O)C(CC)CO` (stereo not given), the T/C was 100 % of control (dose: 50.0 mg/kg/injection, schedule: Q01DX005 (ip), vehicle: saline with Tween-80); 94 % of control (dose: 100.0 mg/kg/injection, schedule: Q01DX005 (ip), vehicle: saline with Tween-80); 99 % of control (dose: 200.0 mg/kg/injection, schedule: Q01DX005 (ip), vehicle: saline with Tween-80).

With `CC1NC(=O)C(NC(=O)c2cnc3ccccc3n2)COC(=O)C(C(C)C)N(C)C(=O)C2CSSCC(C(=O)N(C)C(C(C)C)C(=O)OCC(NC(=O)c3cnc4ccccc4n3)C(=O)NC(C)C(=O)N2C)N(C)C1=O` (stereo not given) (I: Quinoxaline2carbonyl-SA[NMeC][NMeV] / II: Quinoxaline2carbonyl-SA[NMeC][NMeV]; ester I:1-II:C, I:C-II:1; disulfide I:3-II:3; configuration not given here), the T/C is, setting by setting: (dose: 11.0 micrograms/kg/injection, schedule: Q01DX009 (ip), vehicle: saline) 124 % of control; (dose: 22.5 micrograms/kg/injection, schedule: Q01DX009 (ip), vehicle: saline) 115 % of control; (dose: 45.0 micrograms/kg/injection, schedule: Q01DX009 (ip), vehicle: saline) 113 % of control; (dose: 90.0 micrograms/kg/injection, schedule: Q01DX009 (ip), vehicle: saline) 200 % of control.

For the compound `O=S(=O)(O)SCCNCCCCCC1CCCCC1`, the T/C is, setting by setting: (dose: 0.75 mg/kg/injection, schedule: Q01DX009 (ip), vehicle: saline) 100 % of control; (dose: 1.5 mg/kg/injection, schedule: Q01DX009 (ip), vehicle: saline) 100 % of control; (dose: 3.0 mg/kg/injection, schedule: Q01DX009 (ip), vehicle: Klucel (hydroxypropylcellulose) (HPC)) 100 % of control; (dose: 3.0 mg/kg/injection, schedule: Q01DX009 (ip), vehicle: saline) 100 % of control; under setting [1], 115 % of control; (dose: 6.0 mg/kg/injection, schedule: Q01DX009 (ip), vehicle: saline) 105 % of control.

As to `CS(=O)(=O)c1nc(N)nc2nc[nH]c12`, the T/C is, setting by setting: (dose: 75.0 mg/kg/injection, schedule: Q04DX003 (ip), vehicle: saline) 104 % of control; (dose: 100.0 mg/kg/injection, schedule: Q01DX009 (ip), vehicle: saline) 115 % of control; (dose: 150.0 mg/kg/injection, schedule: Q04DX003 (ip), vehicle: saline) 100 % of control; (dose: 200.0 mg/kg/injection, schedule: Q01DX009 (ip), vehicle: saline) 105 % of control; (dose: 300.0 mg/kg/injection, schedule: Q04DX003 (ip), vehicle: saline) 109 % of control.

In the case of `Cc1c(C#N)c2n(c1C)CCN2`, the T/C under setting [1] was 104 % of control; the T/C (dose: 12.0 mg/kg/injection, schedule: Q01DX009 (ip), vehicle: Klucel (hydroxypropylcellulose) (HPC)) was 86 % of control; the T/C (dose: 25.0 mg/kg/injection, schedule: Q01DX009 (ip), vehicle: Klucel (hydroxypropylcellulose) (HPC)) is 92 % of control and 100 % of control; the T/C (dose: 25.0 mg/kg/injection, schedule: Q04DX003 (ip), vehicle: Klucel (hydroxypropylcellulose) (HPC)) was 95 % of control; the T/C (dose: 50.0 mg/kg/injection, schedule: Q04DX003 (ip), vehicle: Klucel (hydroxypropylcellulose) (HPC)) is 100 % of control; the T/C (dose: 100.0 mg/kg/injection, schedule: Q04DX003 (ip), vehicle: Klucel (hydroxypropylcellulose) (HPC)) is 108 % of control.

As for `Cc1c2oc3c(C)ccc(C(=O)NC(C)Cc4ccccc4)c3nc-2c(C(=O)NC(C)Cc2ccccc2)c(N)c1=O` (stereo not given), the T/C (dose: 100.0 mg/kg/injection, schedule: Q04DX002 (ip), vehicle: DMSO) is 87 % of control and the T/C (dose: 200.0 mg/kg/injection, schedule: Q04DX002 (ip), vehicle: DMSO) was 92 % of control.

For `C/C(=N\N=C(/C)c1ccc(Cl)cc1)c1ccc(Cl)cc1`, the T/C by setting is: (dose: 100.0 mg/kg/injection, schedule: Q01DX009 (ip), vehicle: Klucel (hydroxypropylcellulose) (HPC)) 95 % of control; (dose: 200.0 mg/kg/injection, schedule: Q01DX009 (ip), vehicle: Klucel (hydroxypropylcellulose) (HPC)) 90 % of control; (dose: 400.0 mg/kg/injection, schedule: Q01DX009 (ip), vehicle: Klucel (hydroxypropylcellulose) (HPC)) 113 % of control.

`COc1cc(NC(=O)N(CCCl)N=O)cc(OC)c1OC`: the T/C runs as follows: (dose: 0.88 mg/kg/injection, schedule: Q04DX003 (ip), vehicle: saline + alcohol) 114 % of control; (dose: 1.6 mg/kg/injection, schedule: Q01DX009 (ip), vehicle: saline + alcohol) 168 % of control; (dose: 2.4 mg/kg/injection, schedule: Q01DX009 (ip), vehicle: saline + alcohol) 161 % of control; (dose: 3.0 mg/kg/injection, schedule: Q04DX003 (ip), vehicle: saline + alcohol) 166 % of control; (dose: 3.7 mg/kg/injection, schedule: Q01DX009 (ip), vehicle: saline + alcohol) 203 % of control; (dose: 5.5 mg/kg/injection, schedule: Q04DX003 (ip), vehicle: saline + alcohol) 168 % of control. The T/C (dose: 5.56 mg/kg/injection, schedule: Q01DX009 (ip), vehicle: saline + alcohol) was 201 % of control and 203 % of control; the T/C (dose: 8.3 mg/kg/injection, schedule: Q04DX003 (ip), vehicle: saline + alcohol) is 218 % of control; the T/C (dose: 8.33 mg/kg/injection, schedule: Q01DX009 (ip), vehicle: saline + alcohol) is 220 % of control; the T/C (dose: 12.5 mg/kg/injection, schedule: Q01DX009 (ip), vehicle: saline + alcohol) was 226 % of control; the T/C (dose: 12.5 mg/kg/injection, schedule: Q04DX003 (ip), vehicle: saline + alcohol) is 227 % of control; the T/C (dose: 18.7 mg/kg/injection, schedule: Q01DX009 (ip), vehicle: saline + alcohol) is 111 % of control. Also, the T/C reads like this: (dose: 18.7 mg/kg/injection, schedule: Q04DX003 (ip), vehicle: saline + alcohol) 268 % of control; (dose: 25.0 mg/kg/injection, schedule: Q01DX009 (ip), vehicle: saline + alcohol) 108 % of control.

With `C=C(CC(N)=O)C(=O)O` (tested in a mixture with another compound), the T/C runs as follows: (dose: 88.0 mg/kg/injection, schedule: Q01DX003 (ip), vehicle: saline) 109 % of control and 113 % of control; (dose: 177.0 mg/kg/injection, schedule: Q01DX003 (ip), vehicle: saline) 109 % of control and 122 % of control; (dose: 266.0 mg/kg/injection, schedule: Q01DX003 (ip), vehicle: saline) 109 % of control and 122 % of control; (dose: 400.0 mg/kg/injection, schedule: Q01DX003 (ip), vehicle: saline) 118 % of control and 122 % of control; (dose: 600.0 mg/kg/injection, schedule: Q01DX003 (ip), vehicle: saline) 118 % of control.

In the case of `CCC1=C(c2cc(Cl)c3ccccc3c2OCC(=O)O)OC(CC)(C(=O)c2cc(Cl)c3ccccc3c2OCC(=O)O)CC1` (stereo not given), the T/C by setting is: under setting [2], 90 % of control; under setting [3], 95 % of control; (dose: 50.0 mg/kg/injection, schedule: Q04DX003 (ip), vehicle: saline sonified) 100 % of control; (dose: 100.0 mg/kg/injection, schedule: Q01DX009 (ip), vehicle: saline with Tween-80) 115 % of control; (dose: 200.0 mg/kg/injection, schedule: Q04DX003 (ip), vehicle: saline sonified) 90 % of control.

Turning to `O/N=C(\c1ccccc1)c1ccccn1`, the T/C reads like this: (dose: 12.5 mg/kg/injection, schedule: Q01DX009 (ip), vehicle: saline with Tween-80) 96 % of control; under setting [2], 90 % of control; under setting [3], 96 % of control.
